Data as given in patent publication US5053215A, “NMR-assayable ligand-labelled trifluorothymidine containing composition and method for diagnosis of HSV infection” (priority 1988, dated 1991).
Entries after “also recorded” stand apart in the source; their conditions may differ.

Experiments:
[1] = CCl4 induced hepatitis: Alanine Amino Transferase (ALT), Blood Urea Nitrogen (BUN) and histology; assay type: in vivo, CBA/J mice
Procedure: Preliminary experiments were then carried out to determine the average ALT levels of HSV-2 infected mice on day 3 at the time higher levels of TFT were found in the liver. […] A dose response curve of CCl4 hepatitis had shown that between 0.015-0.02 ml/kg CCl4 would lead to ALT levels of 500-5000 IU/ml blood. […]

HSV infected cells = details: in vitro, cited from earlier work; for Degradation of phosphorylated drug back to parent compound: HSV infected cells, Smee et al
[2] = test system: optic nerve and chiasm of rats after intraocular inoculation of HSV-1; details: rat, in vivo; cited from earlier work
in vivo = details: mouse, in vivo, iv
Procedure: (§1) For comparison, TFT levels were measured in the livers of uninfected mice and mice with carbon tetrachloride (CCl4) induced hepatitis.
(§2) HSV-2 (333 strain) was grown and titered in Vero cells as previously described [Rand -t al, J. Med. Virol., Vol. 20, pp. 1-8 (1986).
(§3) The following strains of mice were obtained from the National Cancer Institute: Balb/c, CBA/J, A/HeN, A/J, P/N, and DBA/2N.
(§4) Carbon tetrachloride was dissolved in olive oil for injection. Trifluorothymidine was assayed by high pressure liquid chromatography (HPLC).
(§5) 4-6 week old, 18-23 gm, CBA/J mice were injected intraperitoneally (i.p.) with 1.5 ml of HSV-2 (2-4×10^6 pfu/ml). […] Three days after infection, mice were anesthetized with a 3:1 mixture of 100 mg/ml ketamine HCl:20 mg/ml Xylazine at a dose of 0.2 ml/kg. The jugular vein was surgically exposed, and mice were injected intravenously with 100 or 160 mg/kg of TFT in the appropriate volume of a 20 mg/ml solution in Phosphate Buffered Saline (PBS) pH 7.4. Mice were sacrificed at 45 minutes, 2 hours, 2.5 and 3.5 hours after I.V. injection of TFT. The livers were immediately excised and frozen at -70° C. until they could be studied. For viral titration and measurement of TFT, 1.5 ml of phosphate buffered saline pH 7.4 was mixed with 1 g of liver and the mixture homogenized (10 strokes using a Pyrex Ten Broeck tissue grinder), followed by sonication ×4 for 30 sec. in a Fisher 300 sonic dismembrator at a relative output of 0 55; 0.8 ml of the liver homogenate was mixed with an equal volume of methanol, vortexed extensively and then centrifuged at 15,000×g for 15 minutes. The supernatant was analyzed by HPLC for TFT and the results expressed per gram of liver after correction for dilution. Prior to sonication, 0.5 ml of the liver homogenate was serially diluted in serum free tissue culture media and titrated in triplicate in Vero cells as previously described [Rand et al, supra]. In some experiments the clarified supernatant that had been mixed with methanol as described above was placed in a 5 mm NMR tube and ^19 F content measured by NMR spectroscopy. In other experiments the entire liver was excised, and placed in a 12 mm NMR tube and the ^19 F directly analyzed by NMR spectroscopy.
(§6) Prior to i.p. injection of CCl4 in olive oil, 0.2 ml of blood was collected from each of a group of 5 mice. Twenty-four hours after i.p. injection of 0.1 ml/kg CCl4 in olive oil, blood was collected again, and both sets were analyzed for Alanine Amino Transferase (ALT) and Blood Urea Nitrogen (BUN). For ALT, 2 μl serum was analyzed in duplicate with a Technicon RA 1000 and for BUN 10 μl duplicate samples were analyzed with a Beckman Astra 8. Mice were sacrificed by cervical dislocation and the liver and kidney fixed in 10% formalin, stained with hematoxylin and eosin and examined histologically.
(§7) Therefore, data were analyzed by the non-parametric Mann-Whitney U test.
(§8) In FIG. 1, 1 HSV-2 infected, uninfected and CCl4 treated 4-6 week old CBA/J mice were injected via the jugular vein with 100 mg/kg TFT, and sacrificed at 45 minutes, 2 hours or 3.5 hours later. […] Most of the experiments were done on day 3 after HSV infection; day 2 after infection was not systematically studied, and is presented only for comparison.
(§9) In FIG. 2, the relationship between HSV-2 titer/g liver and TFT concentration/g liver measured by HPLC on day 3 after HSV-2 infection, 2 h (O's) and 2.5 h ( 's) following i.v. administration of TFT. Two separate experiments are shown. Data were analyzed by linear regression.

[3] = test system: livers of mice infected with HSV-2; test: TFT concentration in livers of HSV-2 infected mice (with uninfected and CCl4 hepatitis controls) by HPLC after i.v. injection
Procedure: as §1, §2, §3, §4, §5, §6, §7, §8, §9

[4] = TFT (19F) concentration in mouse livers by 19F NMR spectroscopy after i.v. injection; design: species or system CBA/J mice; HSV-2 (333 strain); details: in vivo, iv, 100 mg/kg, TFT concentration in liver homogenate by 19F NMR (FIG. 3B)
Procedure: (§10) ^19 F assay was carried out in a Nicolet-GE NT-300 NMR spectrometer, using standard techniques with a simple one-pulse sequence. The field was 7.05 Tesla (T) and the frequency was 282 megahertz. Depending upon the volume of the sample available, it was placed :n either a 5 mm or 12 mm diameter tube, which was usually not spun. Both whole liver and liver homogenates were placed in 2 ml of a 2:1 v/v mixture of D2 O: methanol which inactivated HSV, permitted field homogeneity to be optimized and provided field-frequency lock for time averaging. A five-second cycle time was used with a tip angle of 60°. Sweep width was 5000 Hz and 64K data points were collected. Concentration of ^19 F in a sample was evaluated by comparing the electronically integrated area of the resonance peak, after application of 10 Hz line broadening and Fourier transformation of the free induction delays using a 1280 computer, to that of standards containing 10, 50, or 100 μg/ml TFT Instrumental reproducibility of the calculated areas was checked by comparing the integral for the […] standard to that calculated from a scale setting obtained with a 100 μg/ml standard. […]
(§11) In FIG. 3, representative ^19 F NMR spectra was measured with the Nicolet GE NT-300 NMR spectrometer at a field strength of 7.05 T, using a 2:1 v/v D2 O/methanol mixture as a field-frequency lock. […]

[5] = test system: livers of mice infected with HSV-2; test: as above; design: species or system CBA/J mice; HSV-2 (333 strain); details: in vivo, iv, 100 mg/kg, 3.5 h
Procedure: as §10, §11

[6] = TFT blood levels after i.v. injection; assay type: in vivo, CBA/J mice
Procedure: as §4

[7] = test system: murine hepatitis virus (MHV-A59); design: species or system CBA/J mice; MHV-A59; details: mouse, in vivo
Excerpt: Symbols used: =HSV-2; O=MHV-A 59; Δ=uninfected.

HSV TK = details: cited from earlier work
[8] = in vivo; cited from earlier work
HSV infected tissues = details: cited from earlier work
[9] = mouse, in vivo, iv, 160 mg/kg, 2 h

Compound: ClC(Cl)(Cl)Cl [CCl4, carbon tetrachloride]
- ALT levels in blood after CCl4 (0.015-0.02 ml/kg), dose response curve ([1]; 0.015-0.02 ml/kg CCl4): 500-5000 IU/ml blood
- Renal function (BUN) after CCl4 ([1]; 0.2 ml/kg i.p.): no significant alternation in renal function
- ALT levels in blood after CCl4 (0.2 ml/kg) ([1]; 0.2 ml/kg in olive oil i.p., a day later, typical range): 20,000-30,000 IU/ml
- Hepatic necrosis after CCl4 ([1]; 0.2 ml/kg in olive oil i.p., a day later / histology): overwhelming hepatic necrosis; also recorded: massive
- ALT after CCl4 (0.02 ml/kg) ([1]; 24 h post treatment, 0.02 ml/kg, N = 12, after receiving 100 mg/kg TFT, Mean ± SD): 18950 ± 7526 IU/L
- BUN after CCl4 ([1]; 24 h post treatment, 0.2 ml/kg i.p., N = 5, Mean ± SD, pre treatment 10.4 + 2.7): 6.4 ± 2.3 mg/dL
- ALT after CCl4 (0.2 ml/kg) ([1]; 24 h post treatment, 0.2 ml/kg i.p., N = 5, Mean ± SD, pre treatment 28.2 ± 13.8): 28112 ± 6086 IU/L
- Hepatic necrosis after low dose CCl4, histology ([1]; dose printed as 0.0 ml/kg): more localized and less extensive

Compound: Nc1nc2c(ncn2COCCO)c(=O)[nH]1 [DHPG, 9-(2-Hydroxyethyoxymethyl) guanine]
- Degradation of phosphorylated drug back to parent compound (HSV infected cells): did not hydrolyze back to the parent compound as readily
- Intracellular accumulation in HSV infected cells (HSV infected cells): intracellular accumulation; also recorded: accumulated in a similar manner

Compound: Cc1cn([C@@H]2O[C@H](CO)[C@@H](O)[C@@H]2F)c(=O)[nH]c1=O [FMAU, 2' fluoro-5-methyl-1-β-D-arabinosyluracil]
- Accumulation of FMAU in choroid plexus and cells lining the ventricular walls [2]: non-specific accumulation
- Concentration of FMAU in optic nerve and chiasm [2]: specific concentration of the drug in the optic nerve and chiasm

Compound: O=c1[nH]c(=O)n([C@H]2C[C@H](O)[C@@H](CO)O2)cc1C(F)(F)F [TFT, trifluorothymidine]
- concentration at 2 h (in vivo; 100 mg/kg, TFT concentration in liver by HPLC, CCl4 hepatitis): < 1000 ng/g
- concentration at 2 h (in vivo; 160 mg/kg, Mean conc. of TFT in liver, infected mice): 110000 ng/g
- concentration at 2 h (in vivo; 160 mg/kg, Mean conc. of TFT in liver, uninfected mice): 14700 ng/g
- TFT levels in livers of HSV-2 infected mice, positive control in MHV experiment ([3]; 2 HSV-2 infected mice with titers of 10^6 pfu HSV/g liver (FIG. 4)): high levels of TFT in liver; also recorded: strikingly elevated levels
- Accumulation of TFT in liver after i.p. injection ([3]; i.p. injection, HSV infected mice): impossible to demonstrate accumulation of TFT in the liver
- TFT levels in livers of HSV-2 infected mice vs uninfected or CCl4 treated mice ([3]; i.v. injection of TFT, 2 and 3.5 hours in FIG. 1 (100 mg/kg), 100 mg/kg): significantly higher levels of TFT in their livers at both 2 and 3.5 hours; also recorded: highly elevated levels of TFT
- Mean conc. of TFT in liver, infected mice [3, 9]: 110.1 μg/g liver
- Mean conc. of TFT in liver, uninfected mice [3, 9]: 14.7 μg/g liver
- TFT levels in liver on day 2 after HSV-2 infection ([3]; viral titers low (10^3 /g liver)): higher levels of TFT could be found in the livers of HSV-2 infected mice on day 2 as well as day 3
- concentration at 3.5 h [4]: 11000 ng/g
- TFT concentration in liver homogenate by 19F NMR (FIG. 3B) [5]: 11 μg/g liver
- Blood levels of TFT at 45 minutes, difference among groups ([6]; 100 mg/kg i.v., HSV-2 infected, uninfected, CCl4 treated): essentially no difference in blood levels
- Blood levels of TFT at 2 hours ([6]; i.v. injection, 2 hours, any of the groups): no detectable drug at 2 hours in the blood; also recorded: no measurable blood levels
- TFT level vs MHV titer [7]: No relationship between MHV titer and TFT level
- Intracellular accumulation in HSV infected cells (HSV infected cells): intracellular accumulation; also recorded: accumulate in tissue culture
- Phosphorylation by HSV TK (HSV TK): phosphorylated by the HSV TK
- Blood brain barrier crossing [8]: crosses the blood brain barrier poorly

Compound: Nc1nc2c(ncn2COCCO)c(=O)[nH]1 [acyclovir]
- Degradation of phosphorylated drug back to parent compound (HSV infected cells): rapidly degraded back to acyclovir, and diffused out of the cell
- Intracellular accumulation in HSV infected cells (HSV infected cells): intracellular accumulation; also recorded: accumulate in tissue culture; also recorded: accumulated in the form of phosphorylated intermediates
- Phosphorylation by HSV TK (HSV TK): phosphorylated by the HSV TK
- Selective accumulation of acyclovir in HSV infected tissues in vivo (HSV infected tissues; Price et al): unable to demonstrate any selective accumulation
- Duration of elevated plasma levels of acyclovir (HSV infected tissues; s.c. injection, Biron et al, "remained reasonably elevated"): ≥ 2 h
